Experimental data taken from US11434242B2, “Dopamine-b-hydroxylase inhibitors” (BIAL-PORTELA & Cª, S.A., priority 2017, dated 2022).

Target: T1, Dopamine beta hydroxylase (Homo sapiens, UniProt P09172)
T1 construct: 125 μl of plasma; tissue Instituto Português do Sangue Transplantação; host or cells: human plasma from healthy donors
T1 sequence (P09172 40-617 limits assumed): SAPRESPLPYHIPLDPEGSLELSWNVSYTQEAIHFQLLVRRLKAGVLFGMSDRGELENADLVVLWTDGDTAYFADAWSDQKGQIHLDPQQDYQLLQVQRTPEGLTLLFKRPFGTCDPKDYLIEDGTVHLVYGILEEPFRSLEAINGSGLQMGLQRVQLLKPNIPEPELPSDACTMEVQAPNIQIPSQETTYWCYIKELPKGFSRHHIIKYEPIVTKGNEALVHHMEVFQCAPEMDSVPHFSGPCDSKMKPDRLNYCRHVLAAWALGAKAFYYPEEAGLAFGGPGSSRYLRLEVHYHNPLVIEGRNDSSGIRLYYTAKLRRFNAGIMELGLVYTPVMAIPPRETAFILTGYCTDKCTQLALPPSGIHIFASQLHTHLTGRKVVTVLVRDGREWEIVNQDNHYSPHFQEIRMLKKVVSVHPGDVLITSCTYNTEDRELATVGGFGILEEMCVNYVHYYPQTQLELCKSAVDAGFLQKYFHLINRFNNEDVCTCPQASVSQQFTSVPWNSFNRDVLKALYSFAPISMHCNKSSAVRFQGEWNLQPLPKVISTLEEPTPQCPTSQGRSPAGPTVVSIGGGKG
Assay: Dopamine beta hydroxylase activity in human plasma
Assay type: biochemical
Conditions: for Plasma (0.01 μM), activity in % of control: inhibitor 0.01 μM; for Plasma (0.1 μM), activity in % of control: inhibitor 0.1 μM
Procedure, shortened: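 Healthy-donor human plasma pre-incubated 10 min at 37° C with compound at final 10, 100 or 1000 nM in pH 5.0 acetate buffer with ascorbate, fumarate, pargyline, N-ethylmaleimide, catalase and copper sulfate. Tyramine substrate then added for 45 min; octopamine formed was isolated by SCX cartridge, periodate-converted and read at 330 nm; activity given as % control.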

Question: For `Cl.Cn1c(CCNC2CCCC2)c2n(c1=S)C[C@@]1(c3cc(Cl)ccc3F)C[C@@H]21` [Example 322, (5aS,6aR)-5a-(5-chloro-2-fluorophenyl)-1-(2-(cyclopentylamino)ethyl)-2-methyl-5,5a,6,6a-tetrahydrocyclopropa[3,4]pyrrolo[1,2-c]imidazole-3(2H)-thione Hydrochloride], which “Plasma (0.01 μM), activity in % of control” value is on record?
Answer: 62.3 % of control

Question: What about the “Plasma (0.1 μM), activity in % of control” value of the same compound?
Answer: 43.4 % of control

Question: What does the source list for `Cn1c(CC(=O)N2CCNC(=O)C2)c2n(c1=S)C[C@@H](c1c(F)c(F)cc(F)c1F)C2` [Example 323, (R)-4-(2-(2-methyl-6-(2,3,5,6-tetrafluorophenyl)-3-thioxo-2,5,6,7-tetrahydro-3H-pyrrolo[1,2-c]imidazol-1-yl)acetyl)piperazin-2-one]?
Answer: Plasma (0.01 μM), activity in % of control: 86.3 % of control; Plasma (0.1 μM), activity in % of control: 43.3 % of control

Question: For `CN1CCN(C(=O)Cc2c3n(c(=S)n2C)C[C@@H](c2c(F)c(F)cc(F)c2F)C3)CC1=O` [Example 324, (R)-1-methyl-4-(2-(2-methyl-6-(2,3,5,6-tetrafluorophenyl)-3-thioxo-2,5,6,7-tetrahydro-3H-pyrrolo[1,2-c]imidazol-1-yl)acetyl)piperazin-2-one], which “Plasma (0.01 μM), activity in % of control” value is on record?
Answer: 88.6 % of control

Question: What about the “Plasma (0.1 μM), activity in % of control” value of the same compound?
Answer: 53.1 % of control

Question: How did the “Plasma (0.01 μM), activity in % of control” value turn out when `Cn1c(CC(=O)N[C@H]2CC[C@H](O)CC2)c2n(c1=S)C[C@@]1(c3cc(Br)ccc3F)C[C@@H]21` [Example 325, 2-((5aS,6aR)-5a-(5-bromo-2-fluorophenyl)-2-methyl-3-thioxo-2,3,5,5a,6,6a-hexahydrocyclopropa[3,4]pyrrolo[1,2-c]imidazol-1-yl)-N-((1r,4R)-4-hydroxycyclohexyl)acetamide] was run?
Answer: 34.2 % of control

Question: And the “Plasma (0.1 μM), activity in % of control” value?
Answer: 3.8 % of control

Question: Which “Plasma (0.01 μM), activity in % of control” value does the source give for `CN1CCN(C(=O)Cc2c3n(c(=S)n2C)C[C@@]2(c4cc(Cl)ccc4F)C[C@@H]32)CC1` [Example 326, 2-((5aS,6aR)-5a-(5-chloro-2-fluorophenyl)-2-methyl-3-thioxo-2,3,5,5a,6,6a-hexahydrocyclopropa[3,4]pyrrolo[1,2-c]imidazol-1-yl)-1-(4-methylpiperazin-1-yl)ethan-1-one] here?
Answer: 96.6 % of control

Question: And the “Plasma (0.1 μM), activity in % of control” value?
Answer: 59.5 % of control

Question: `Cn1c(CC(=O)N[C@@H]2CCCOC2)c2n(c1=S)C[C@H](c1c(F)ccc(Cl)c1F)C2` [Example 327, 2-((S)-6-(3-chloro-2,6-difluorophenyl)-2-methyl-3-thioxo-2,5,6,7-tetrahydro-3H-pyrrolo[1,2-c]imidazol-1-yl)-N—((R)-tetrahydro-2H-pyran-3-yl)acetamide] was tested. Which “Plasma (0.01 μM), activity in % of control” value did it give?
Answer: 49.9 % of control

Question: What about the “Plasma (0.1 μM), activity in % of control” value of the same compound?
Answer: 7.0 % of control

Question: `Cn1c(CC(=O)NCc2cnccn2)c2n(c1=S)C[C@H](c1c(F)ccc(Cl)c1F)C2` [Example 328, (S)-2-(6-(3-chloro-2,6-difluorophenyl)-2-methyl-3-thioxo-2,5,6,7-tetrahydro-3H-pyrrolo[1,2-c]imidazol-1-yl)-N-(pyrazin-2-ylmethyl)acetamide] was tested. Which “Plasma (0.01 μM), activity in % of control” value did it give?
Answer: 63.1 % of control

Question: And the “Plasma (0.1 μM), activity in % of control” value?
Answer: 9.4 % of control

Question: With `Cn1c(CC(=O)N2CCOCC2)c2n(c1=S)C[C@H](c1c(F)ccc(Cl)c1F)C2` [Example 329, (S)-2-(6-(3-chloro-2,6-difluorophenyl)-2-methyl-3-thioxo-2,5,6,7-tetrahydro-3H-pyrrolo[1,2-c]imidazol-1-yl)-1-morpholinoethan-1-one] as the compound, how does the “Plasma (0.01 μM), activity in % of control” value read?
Answer: 41.7 % of control

Question: What about the “Plasma (0.1 μM), activity in % of control” value of the same compound?
Answer: 16.1 % of control

Question: With `Cl.Cn1c(CCNC2CCCC2)c2n(c1=S)C[C@@]1(c3cc(Br)ccc3F)C[C@@H]21` [Example 330, (5aS,6aR)-5a-(5-bromo-2-fluorophenyl)-1-(2-(cyclopentylamino)ethyl)-2-methyl-5,5a,6,6a-tetrahydrocyclopropa[3,4]pyrrolo[1,2-c]imidazole-3(2H)-thione Hydrochloride] as the compound, how does the “Plasma (0.01 μM), activity in % of control” value read?
Answer: 71.7 % of control

Question: And the “Plasma (0.1 μM), activity in % of control” value?
Answer: 32.5 % of control

Question: Which “Plasma (0.01 μM), activity in % of control” value does the source give for `Cl.Cn1c(CCN[C@@H]2CCCOC2)c2n(c1=S)C[C@@]1(c3cc(Br)ccc3F)C[C@@H]21` [Example 331, (5aS,6aR)-5a-(5-bromo-2-fluorophenyl)-2-methyl-1-(2-(((R)-tetrahydro-2H-pyran-3-yl)amino)ethyl)-5,5a,6,6a-tetrahydrocyclopropa[3,4]pyrrolo[1,2-c]imidazole-3(2H)-thione Hydrochloride] here?
Answer: 77.4 % of control

Question: What about the “Plasma (0.1 μM), activity in % of control” value of the same compound?
Answer: 50.2 % of control

Question: Which results are given for `Cl.Cn1c(CC(=O)NCc2ccccn2)c2n(c1=S)C[C@@]1(c3cc(Cl)ccc3F)C[C@@H]21` [Example 332, 2-((5aS,6aR)-5a-(5-chloro-2-fluorophenyl)-2-methyl-3-thioxo-2,3,5,5a,6,6a-hexahydrocyclopropa[3,4]pyrrolo[1,2-c]imidazol-1-yl)-N-(pyridin-2-ylmethyl)acetamide Hydrochloride]?
Answer: Plasma (0.01 μM), activity in % of control: 32.8 % of control; Plasma (0.1 μM), activity in % of control: 2.7 % of control

Question: With `Cn1c(CC(=O)NC2COC2)c2n(c1=S)C[C@H](c1c(F)ccc(Cl)c1F)C2` [Example 333, (S)-2-(6-(3-chloro-2,6-difluorophenyl)-2-methyl-3-thioxo-2,5,6,7-tetrahydro-3H-pyrrolo[1,2-c]imidazol-1-yl)-N-(oxetan-3-yl)acetamide] as the compound, how does the “Plasma (0.01 μM), activity in % of control” value read?
Answer: 47.5 % of control

Question: And the “Plasma (0.1 μM), activity in % of control” value?
Answer: 11.7 % of control

Question: Which “Plasma (0.01 μM), activity in % of control” value does the source give for `Cl.Cn1c(CCNCC(F)(F)F)c2n(c1=S)C[C@@]1(c3cc(Br)ccc3F)C[C@@H]21` [Example 334, (5aS,6aR)-5a-(5-bromo-2-fluorophenyl)-2-methyl-1-(2-((2,2,2-trifluoroethyl)amino)ethyl)-5,5a,6,6a-tetrahydrocyclopropa[3,4]pyrrolo[1,2-c]imidazole-3(2H)-thione Hydrochloride] here?
Answer: 80.3 % of control

Question: What about the “Plasma (0.1 μM), activity in % of control” value of the same compound?
Answer: 41.9 % of control

Question: Which results are given for `Cl.Cn1c(CC(=O)NCc2cnccn2)c2n(c1=S)C[C@@]1(c3cc(Cl)ccc3F)C[C@@H]21` [Example 335, 2-((5aS,6aR)-5a-(5-chloro-2-fluorophenyl)-2-methyl-3-thioxo-2,3,5,5a,6,6a-hexahydrocyclopropa[3,4]pyrrolo[1,2-c]imidazol-1-yl)-N-(pyrazin-2-ylmethyl)acetamide Hydrochloride]?
Answer: Plasma (0.01 μM), activity in % of control: 44.9 % of control; Plasma (0.1 μM), activity in % of control: 8.7 % of control

Question: `Cn1c(CC(=O)NC[C@@H]2CCCO2)c2n(c1=S)C[C@H](c1c(F)ccc(Cl)c1F)C2` [Example 336, 2-((S)-6-(3-chloro-2,6-difluorophenyl)-2-methyl-3-thioxo-2,5,6,7-tetrahydro-3H-pyrrolo[1,2-c]imidazol-1-yl)-N—(((S)-tetrahydrofuran-2-yl)methyl)acetamide] was tested. Which “Plasma (0.01 μM), activity in % of control” value did it give?
Answer: 50.0 % of control

Question: What about the “Plasma (0.1 μM), activity in % of control” value of the same compound?
Answer: 9.4 % of control

Question: Which “Plasma (0.01 μM), activity in % of control” value does the source give for `Cn1c(CC(=O)NC[C@H]2CCCO2)c2n(c1=S)C[C@H](c1c(F)ccc(Cl)c1F)C2` [Example 337, 2-((S)-6-(3-chloro-2,6-difluorophenyl)-2-methyl-3-thioxo-2,5,6,7-tetrahydro-3H-pyrrolo[1,2-c]imidazol-1-yl)-N—(((R)-tetrahydrofuran-2-yl)methyl)acetamide] here?
Answer: 48.2 % of control

Question: What about the “Plasma (0.1 μM), activity in % of control” value of the same compound?
Answer: 9.4 % of control

Question: How did the “Plasma (0.01 μM), activity in % of control” value turn out when `Cn1cc(CNC(=O)Cc2c3n(c(=S)n2C)C[C@H](c2c(F)ccc(Cl)c2F)C3)cn1` [Example 338, (S)-2-(6-(3-chloro-2,6-difluorophenyl)-2-methyl-3-thioxo-2,5,6,7-tetrahydro-3H-pyrrolo[1,2-c]imidazol-1-yl)-N-((1-methyl-1H-pyrazol-4-yl)methyl)acetamide] was run?
Answer: 36.4 % of control

Question: And the “Plasma (0.1 μM), activity in % of control” value?
Answer: 6.2 % of control

Question: For `Cn1cc(CNC(=O)Cc2c3n(c(=S)n2C)C[C@@]2(c4cc(Cl)ccc4F)C[C@@H]32)cn1` [Example 339, 2-((5aS,6aR)-5a-(5-chloro-2-fluorophenyl)-2-methyl-3-thioxo-2,3,5,5a,6,6a-hexahydrocyclopropa[3,4]pyrrolo[1,2-c]imidazol-1-yl)-N-((1-methyl-1H-pyrazol-4-yl)methyl)acetamide], which “Plasma (0.01 μM), activity in % of control” value is on record?
Answer: 42.3 % of control

Question: And the “Plasma (0.1 μM), activity in % of control” value?
Answer: 4.3 % of control

Question: `Cn1c(CC(=O)Nc2nccs2)c2n(c1=S)C[C@@H](c1c(F)c(F)cc(F)c1F)C2` [Example 340, (R)-2-(2-methyl-6-(2,3,5,6-tetrafluorophenyl)-3-thioxo-2,5,6,7-tetrahydro-3H-pyrrolo[1,2-c]imidazol-1-yl)-N-(thiazol-2-yl)acetamide] was tested. Which “Plasma (0.01 μM), activity in % of control” value did it give?
Answer: 87.6 % of control

Question: And the “Plasma (0.1 μM), activity in % of control” value?
Answer: 27.0 % of control
